# Columns and labels:
# C. jejuni P5/4 = experiment: Kirby-Bauer disk diffusion; assay type: cell-based, Campylobacter jejuni; conditions: 15 μg per disk
# Method: (§1) An initial screening of the antibacterial activity of the compounds was performed by the Kirby-Bauer disk diffusion method, as recommended by the Clinical and Laboratory Standards Institute (CLSI). Briefly, sterile 6 mm blank paper disks (Oxoid, Basingstoke, England) impregnated with 15 μg of each compound were placed on inoculated MH agar plates. A blank disk with dimethylsulfoxide (DMSO) was used as a negative control. MH inoculated plates were incubated for 18-20 h at 37 degrees C. At the end of incubation, the inhibition halos where measured. The MIC was used to determine the antibacterial activity of each compound, in accordance with the recommendations of the CLSI. Two-fold serial dilutions of the compounds were prepared in Mueller-Hinton Broth 2 (MHB2—Sigma-Aldrich, St. Louis, MO, USA) within the concentration range of 0.062-64 μg/mL. CTX ranging between 0.031-16 μg/mL was used as a control. Sterility and growth controls were included in each assay. Purity checks and colony counts of the inoculum suspensions were also performed in order to ensure that the final inoculum density closely approximates the intended number (5×10^5 CFU/mL). The MIC was determined as the lowest concentration of compound that inhibited growth of the bacteria. The MBC was assessed by spreading 10 μL of culture collected from wells showing no visible growth on MH agar plates. […]
# S. aureus 66/1 (MRSA) = experiment: Kirby-Bauer disk diffusion; assay type: cell-based, Staphylococcus aureus; conditions: 15 μg per disk
# Method: as §1
# E. faecalis B3/101 (VRE) = experiment: Kirby-Bauer disk diffusion; assay type: cell-based, Enterococcus faecalis; conditions: 15 μg per disk
# Method: as §1
# [1] = test system: Enterococcuss faecalis ATCC 29212; experiment: Kirby-Bauer disk diffusion; assay type: cell-based, Enterococcus faecalis; conditions: 15 μg per disk
# Method: as §1
# E. coli ATCC 25922 [2] = experiment: Checkerboard synergy with erythromycin; assay type: cell-based, Escherichia coli; conditions: E. coli ATCC 25922
# Method: The combined effect of compound 1 and CTX for E. coli SA/2, VAN for E. faecalis B3/101, COL for E. coli 2252, erythromycin for E. coli ATCC 25922, and OXA for S. aureus 66/1 was evaluated by the checkerboard method. […] The interaction between compound 1 and erythromycin was assessed for E. coli ATCC 25922. Gram-negative bacteria are intrinsically resistant to erythromycin, a macrolide that inhibits protein synthesis, and cannot penetrate the outer membrane of Gram-negative bacteria, which is impermeable to hydrophobic antibiotics. Ascertain ceragenins have been previously described to be able to enhance the efficacy of such antibiotics, this possibility was investigated for compound 1 and a FICI of 0.6 was obtained.
# E. coli ATCC 25922 [3] = experiment: Bacterial biofilm formation inhibition (crystal violet); assay type: cell-based, Escherichia coli
# Method: In an embodiment, the antibiofilm activity of compound 1 was performed as follows. Given its bactericidal effect, the impact of compound 1 on the biofilm formation of reference strains was studied.
# The effect of compound 1 on bacterial biofilm formation was evaluated through quantification of total biomass, using the crystal violet method, as previously described ([FIG. 6]). […] A control with an appropriate concentration of DMSO, as well as a negative control (TSB alone) was included. Sterile 96-well flat-bottomed untreated polystyrene microtiter plates were used. After a 24 h incubation at 37 degrees C., the biofilms were heat-fixed for 1 h at 60 degrees C. and stained with 0.5% (v/v) crystal violet (Quimica Clinica Aplicada, Amposta, Spain) for 5 min. The stain was resolubilized with 33% (v/v) acetic acid (Acetic acid 100%, AppliChem, Darmstadt, Germany) and the biofilm biomass was quantified by measuring the absorbance of each sample at 570 nm in a microplate reader (Thermo Scientific Multiskan® EX, Thermo Fisher Scientific, Waltham, MA, USA). The background absorbance (TSB or TSB+1% glucose without inoculum) was subtracted from the absorbance of each sample and the data are presented as a percentage of control. Three independent assays were performed for reference strains, with triplicates for each experimental condition.
# C. albicans ATCC 10231 [4] = experiment: Propidium iodide influx assay (SYTO 9/PI); assay type: cell-based, Candida albicans; conditions: 5 min
# Method: Influx of PI in C. albicans ATCC 10231 treated with compound 1 was evaluated using a commercial kit, which includes fluorescent nucleic acid stains SYTO™ 9 and PI, and measurements were conducted in a fluorescence microplate reader. […] The ability of PI to penetrate cells with damaged membranes makes it suitable for studying the effect of drugs on cell membranes.
# In order to assess membrane integrity by the PI influx assay, a commercial kit was used (LIVE/DEAD® BacLight™ Bacterial Viability Kit, for microscopy & quantitative assays, Invitrogen by Thermo Fisher Scientific, Waltham, MA, USA), which includes fluorescent nucleic acid stains SYTO® 9 and PI. Briefly, C. albicans ATCC 10231 colonies from overnight cultures in SDA were suspended in sterile saline and adjusted to 0.5 McFarland. This suspension was then diluted in RPMI (1:50 followed by 1:20) to achieve a final concentration of 0.5-2.5×10^3 CFU/mL and the tubes were incubated overnight at 36° C. in a water bath with shaking. The following day, the cell suspensions were centrifuged at 3500 rpm for 15 min, the supernatant was removed, and the cells were carefully resuspended in 2 mL of 0.85% NaCl (VWR International, Radnor, PA, USA) prepared in ultrapure water. An aliquot of this suspension was then added to each tube of 0.85% NaCl alone (control) or 0.85% NaCl plus an appropriate amount of test compound, in a 1:10 proportion. […] Fluorescence intensity of the stained yeast suspensions was obtained in a microplate reader (Synergy HT, BioTek Instruments) by two consecutive measurements: with excitation wavelength 485 nm and emission wavelength 528 nm (SYTO® 9) and with excitation wavelength 485 nm and emission wavelength 590 nm (PI). Data were analyzed by subtracting background fluorescence from each sample, dividing fluorescence intensity of SYTO® 9 by fluorescence intensity of PI, and are presented as a percentage of control. […]
# C. albicans ATCC 10231 [5] = experiment: Biofilm formation (crystal violet); assay type: cell-based, Candida albicans; conditions: 2×MIC to ¼×MIC (128-16 μg/mL), 48 h
# Method: The effect of compound 1 on biofilm formation of C. albicans ATCC 10231 was evaluated through quantification of total biomass by crystal violet staining. […] A control with appropriate concentration of DMSO, as well as a negative control (RPMI alone), were included. Sterile 96-well flat-bottomed untreated polystyrene microtiter plates were used. After a 48 h incubation at 35° C., the biofilms were stained with 1% (v/v) crystal violet for 5 min. The stain was solubilized with 33% (v/v) acetic acid and the biofilm biomass was quantified by measuring the absorbance of each sample at 570 nm in a microplate reader (Thermo Scientific Multiskan® EX, Thermo Fisher Scientific, Waltham, MA, USA). The background absorbance (RPMI without inoculum) was subtracted, and the data are presented as percentage of control. Three independent assays were performed in triplicate for each experimental condition.
# C. albicans ATCC 10231 [6] = experiment: Germ tube formation; assay type: cell-based, Candida albicans; conditions: 3 h
# Method: The effect of compound 1 in germ tube formation of C. albicans ATCC 10231 was determined as previously described. Briefly, cell suspensions were prepared in NYP medium (N-acetylglucosamine [Sigma, St. Louis, MO, USA; 10-3 mol/L], yeast nitrogen base [Difco, New Jersey, USA; 3.35 g/L], proline [Fluka, Buchs, St. Gallen, Switzerland; 10^−3 mol/L], and NaCl [4.5 g/L], pH 6.7±0.1) and adjusted to a density of (1.0±0.2)×10^6 CFU/mL, as determined by cell counts using a haemocytometer. An appropriate volume of compound stock solution at 10 mg/mL was added to obtain final concentrations ranging between 64 and 8 μg/mL. Filamentation controls were included in each assay with and without 0.64% DMSO. Following a 3 h incubation at 37° C., 100 cells from each sample were counted, using a haemocytometer, and the percentage of germ tubes was determined. Three independent assays were performed.
structure (smiles),measurement,setting,value
"C[C@H](CCC(=O)NCCN)[C@H]1CC[C@H]2[C@@H]3CC[C@@H]4C[C@H](O)CC[C@]4(C)[C@H]3C[C@H](O)[C@]12C [Compound 1, (R)—N-(2-aminoethyl)-4-((3R,5R,8R,9S,10S,12S,13R,14S,17R)-3,12-dihydroxy-10,13-dimethylhexadecahydro-1H-cyclopenta[a]phenanthren-17-yl) pentanamida]",Disk diffusion,C. jejuni P5/4,8 mm
same,Disk diffusion,S. aureus 66/1 (MRSA),11 mm
same,Disk diffusion,E. faecalis B3/101 (VRE),11 mm
same,Disk diffusion,[1],13 mm
same,combined effect with erythromycin (in words),E. coli ATCC 25922 [2]; checkerboard,No synergistic interactions
same,fractional inhibitory concentration index (FICI),E. coli ATCC 25922 [2]; with erythromycin,0.6
same,biofilm formation (in words),"E. coli ATCC 25922 [3]; 2×MIC and MIC, 24 h",significantly inhibited
same,minimal biofilm inhibitory concentration (MBIC),"E. coli ATCC 25922 [3]; 80% reduction of biofilm formation, E. coli ATCC 25922",< 8 µg/mL
same,influx of PI,C. albicans ATCC 10231 [4]; 32 μg/mL (½×MIC),no evidence of influx of PI
same,reduction of SYTO 9/PI ratio vs untreated control,C. albicans ATCC 10231 [4]; 128 and 64 μg/mL (2×MIC and MIC),significant
same,biofilm formation (in words),C. albicans ATCC 10231 [5],significant inhibition of biofilm formation
same,dimorphic transition / germ tube formation (in words),C. albicans ATCC 10231 [6]; 64 μg/mL (MIC),complete inhibition of dimorphic transition
same,dimorphic transition / germ tube formation (in words),C. albicans ATCC 10231 [6]; 32 and 16 μg/mL (½×MIC and ¼×MIC),significant inhibition

# From patent US20250002450A1, “CATIONIC STEROID COMPOUNDS, METHOD OF OBTAINING THEREOF, FORMULATIONS COMPRISING THEREOF AND THEIR USES” (UNIVERSIDADE DO PORTO, priority 2021, published 2025)
